The text below walks through data of the supplement of paper PMC6965134.

± gives the standard deviation of the averaged measurements.

This data set in a line: TIMS collisional cross section (CCS, N2) of the lipid ion; higher = larger ion cross section. The note with it: ionization mode: positive, one isomer drawn.

For the compound `CCCCC/C=C\C/C=C\C/C=C\C/C=C\CCCC(=O)O[C@H](COC(=O)CCCCCCC/C=C\CCCCCC)COP(=O)([O-])OCC[N+](C)(C)C` [PC 16:1_20:4] (ion (formula + adduct): [C44H78NO8P+H] 1+), the “TIMS collisional cross section” value came to 285.8 Å² (sample type: HeLa) and 286.4 Å² (sample type: plasma).

Regarding `CC/C=C\C/C=C\C/C=C\C/C=C\C/C=C\CCCC(=O)O[C@H](COC(=O)CCCCCCC/C=C\CCCCCC)COP(=O)([O-])OCC[N+](C)(C)C` [PC 16:1_20:5] (ion (formula + adduct): [C44H76NO8P+H] 1+), the “TIMS collisional cross section” value (sample type: HeLa) was determined as 283.2 Å².

On to `CC/C=C\C/C=C\C/C=C\C/C=C\C/C=C\C/C=C\CCC(=O)O[C@H](COC(=O)CCCCCCC/C=C\CCCCCC)COP(=O)([O-])OCC[N+](C)(C)C` [PC 16:1_22:6@] (ion (formula + adduct): [C46H78NO8P+H] 1+), for which the “TIMS collisional cross section” value (sample type: HeLa) worked out at 288.4 Å² and the “TIMS collisional cross section” value (sample type: Liver) stood at 289 Å².

Consider `CC/C=C\C/C=C\C/C=C\C/C=C\C/C=C\C/C=C\CCC(=O)O[C@H](COC(=O)CCCCCCC/C=C\CCCCCC)COP(=O)([O-])OCC[N+](C)(C)C` [PC 16:1_22:6] (ion (formula + adduct): [C46H78NO8P+H] 1+), for which, for the setting “sample type: Liver”, the “TIMS collisional cross section” value is 288.5 Å².

For `CCCCCCCC/C=C\CCCCCCCC(=O)O[C@H](COC(=O)CCCCCCCCCCCCCCCC)COP(=O)([O-])OCC[N+](C)(C)C` [PC 17:0@_18:1] (ion (formula + adduct): [C43H84NO8P+H] 1+), the “TIMS collisional cross section” value (sample type: HeLa) stood at 291.8 Å².

In the case of `CCCCC/C=C\C/C=C\CCCCCCCC(=O)O[C@H](COC(=O)CCCCCCCCCCCCCCCC)COP(=O)([O-])OCC[N+](C)(C)C` [PC 17:0@_18:2] (ion (formula + adduct): [C43H82NO8P+H] 1+), the “TIMS collisional cross section” value (sample type: Liver) was found to be 288.1 Å².

As to `CCCCC/C=C\C/C=C\C/C=C\C/C=C\CCCC(=O)O[C@H](COC(=O)CCCCCCCCCCCCCCCC)COP(=O)([O-])OCC[N+](C)(C)C` [PC 17:0@_20:4] (ion (formula + adduct): [C45H82NO8P+H] 1+), the “TIMS collisional cross section” value (sample type: plasma) came out at 292.4 Å².

Turning to `CCCCC/C=C\C/C=C\CCCCCCCC(=O)O[C@H](COC(=O)CCCCCCCCCCCCCCCC)COP(=O)([O-])OCC[N+](C)(C)C` [PC 17:0_18:2] (ion (formula + adduct): [C43H82NO8P+H] 1+), the “TIMS collisional cross section” value (sample type: Liver) was found to be 288.1 Å².

Consider `CCCCC/C=C\C/C=C\C/C=C\C/C=C\CCCC(=O)O[C@H](COC(=O)CCCCCCCCCCCCCCCC)COP(=O)([O-])OCC[N+](C)(C)C` [PC 17:0_20:4] (ion (formula + adduct): [C45H82NO8P+H] 1+), for which the “TIMS collisional cross section” value (sample type: plasma) is 292.9 Å².

Consider `CC/C=C\C/C=C\C/C=C\C/C=C\C/C=C\CCCC(=O)O[C@H](COC(=O)CCCCCCC/C=C\CCCCCCC)COP(=O)([O-])OCC[N+](C)(C)C` [PC 17:1@_20:5] (ion (formula + adduct): [C45H78NO8P+H] 1+), for which the “TIMS collisional cross section” value (sample type: HeLa) is 286.4 Å².

As to `CCCCCCC/C=C\CCCCCCCC(=O)OC[C@H](COP(=O)([O-])OCC[N+](C)(C)C)OC(=O)CCCCCCC/C=C\CCCCCCCC` [PC 17:1_18:1] (ion (formula + adduct): [C43H82NO8P+H] 1+), for the setting “sample type: HeLa”, the “TIMS collisional cross section” value was determined as 289.2 Å².

In the case of `CCCCC/C=C\C/C=C\CCCCCCCC(=O)O[C@H](COC(=O)CCCCCCC/C=C\CCCCCCC)COP(=O)([O-])OCC[N+](C)(C)C` [PC 17:1_18:2] (ion (formula + adduct): [C43H80NO8P+H] 1+), the “TIMS collisional cross section” value (sample type: Liver) was 285.6 Å².

Regarding `CCCCC/C=C\C=C/CCCCCCCCC(=O)O[C@H](COC(=O)CCCCCCCCCCCCCCCCC)COP(=O)([O-])OCC[N+](C)(C)C` [PC 18:0@_18:2] (ion (formula + adduct): [C44H84NO8P+H] 1+), for the setting “sample type: plasma”, the “TIMS collisional cross section” value came to 292.6 Å².

`CCCCC/C=C\C/C=C\C/C=C\C/C=C\CCCC(=O)O[C@H](COC(=O)CCCCCCCCCCCCCCCCC)COP(=O)([O-])OCC[N+](C)(C)C` [PC 18:0@_20:4] (ion (formula + adduct): [C46H84NO8P+H] 1+): the “TIMS collisional cross section” value (sample type: plasma) was 296 Å².

Regarding `CC/C=C\C/C=C\C/C=C\C/C=C\C/C=C\CCCC(=O)O[C@H](COC(=O)CCCCCCCCCCCCCCCCC)COP(=O)([O-])OCC[N+](C)(C)C` [PC 18:0@_20:5] (ion (formula + adduct): [C46H82NO8P+H] 1+), the “TIMS collisional cross section” value runs as follows: (sample type: Liver) 296.3 Å²; (sample type: plasma) 295.4 Å².

`CCCCC/C=C\C/C=C\C/C=C\C/C=C\CCCCCC(=O)O[C@H](COC(=O)CCCCCCCCCCCCCCCCC)COP(=O)([O-])OCC[N+](C)(C)C` [PC 18:0@_22:4] (ion (formula + adduct): [C48H88NO8P+H] 1+): the “TIMS collisional cross section” value (sample type: plasma) was 300.7 Å².

For the compound `CCCCC/C=C\C/C=C\C/C=C\C/C=C\C/C=C\CCC(=O)O[C@H](COC(=O)CCCCCCCCCCCCCCCCC)COP(=O)([O-])OCC[N+](C)(C)C` [PC 18:0@_22:5] (ion (formula + adduct): [C48H86NO8P+H] 1+), the “TIMS collisional cross section” value (sample type: HeLa) amounted to 298.9 Å² and the “TIMS collisional cross section” value (sample type: plasma) is on record as 299.3 ± 0.42 Å².

Regarding `CCCCCC/C=C\CCCCCCCCCC(=O)O[C@H](COC(=O)CCCCCCCCCCCCCCCCC)COP(=O)([O-])OCC[N+](C)(C)C` [PC 18:0_18:1] (ion (formula + adduct): [C44H86NO8P+H] 1+), the “TIMS collisional cross section” value was 294.7 Å² (sample type: HeLa) and 295.2 Å² (sample type: plasma).

Take `CCCCC/C=C\C=C/CCCCCCCCC(=O)O[C@H](COC(=O)CCCCCCCCCCCCCCCCC)COP(=O)([O-])OCC[N+](C)(C)C` [PC 18:0_18:2] (ion (formula + adduct): [C44H84NO8P+H] 1+): the “TIMS collisional cross section” value is, setting by setting: (sample type: Liver) 292.8 Å²; (sample type: plasma) 291.1 Å².

As for `CCCCC/C=C\C/C=C\CCCCCCCCCC(=O)O[C@H](COC(=O)CCCCCCCCCCCCCCCCC)COP(=O)([O-])OCC[N+](C)(C)C` [PC 18:0_20:2@] (ion (formula + adduct): [C46H88NO8P+H] 1+), for the setting “sample type: Liver”, the “TIMS collisional cross section” value is 297.5 Å².

On to `CCCCC/C=C\C/C=C\C/C=C\C/C=C\CCCC(=O)O[C@H](COC(=O)CCCCCCCCCCCCCCCCC)COP(=O)([O-])OCC[N+](C)(C)C` [PC 18:0_20:4] (ion (formula + adduct): [C46H84NO8P+H] 1+), for which the “TIMS collisional cross section” value worked out at 296.2 Å² (sample type: HeLa) and 295.6 Å² (sample type: Liver).

Regarding `CCCCC/C=C\C/C=C\C/C=C\C/C=C\C/C=C\CCC(=O)O[C@H](COC(=O)CCCCCCCCCCCCCCCCC)COP(=O)([O-])OCC[N+](C)(C)C` [PC 18:0_22:5] (ion (formula + adduct): [C48H86NO8P+H] 1+), the “TIMS collisional cross section” value is, setting by setting: (sample type: Liver) 299.3 Å²; (sample type: plasma) 301 Å².

For `CC/C=C\C/C=C\C/C=C\C/C=C\C/C=C\C/C=C\CCC(=O)O[C@H](COC(=O)CCCCCCCCCCCCCCCCC)COP(=O)([O-])OCC[N+](C)(C)C` [PC 18:0_22:6] (ion (formula + adduct): [C48H84NO8P+H] 1+), the “TIMS collisional cross section” value (sample type: Liver) stood at 297.9 Å².
